Data reported in patent US20090326014A1, “Use of 5-ht7 receptor agonists for the treatment of pain” (Laboratorios Del Dr. Esteve, S.A., priority 2006, published 2009).
Several values for one entry are separate records, joined by “and”; a condition that tells them apart may be missing. Equal entries are not always repeated. Entries after “also recorded” stand apart in the source; their conditions may differ. Where two headings read alike, the source gives them in different places.

Tests used:
[1] = test system: 5-HT1A; conditions: Foster et al., 1995; cited from earlier work
[2] = test system: capsaicin-induced mechanical allodynia; test: Capsaicin test, antiallodynic protocol (1 μg capsaicin, 1 g von Frey filament); conditions: for dose at which the antiallodynic effect reached the maximum: s.c.
Procedure: Animals were housed in groups of five, provided with food and water ad libitum and kept in controlled laboratory conditions with the temperature maintained at 21±1° C. and light in 12 h cycles (on at 07:00 h and off at 19:00 h). Experiments were carried out in a soundproof and air-regulated experimental room. The number of mice per group in each individual experiment was 16.
Capsaicin (8-methyl-N-vanillyl 6-nonamide) was dissolved in 1% DMSO (vehicle). […] Doses were calculated based on the molecular weight of the free base. All the compounds and vehicles (1% DMSO or physiological saline) were administered in a volume of 5 ml/kg through the subcutaneous (s.c.) route. When two compounds were co-administered, they were injected s.c. in opposite flanks of the mice.
Subplantar capsaicin injection initially evokes a nocifensive behavior that is characterized by lifting and guarding the injected paw and typically lasts up to 5 min following injection. […] In this study, sensitization by subplantar capsaicin injection was used to assess the effect of several 5-HT7 ligands on mechanical allodynia.
Drug treatments with 5-HT7 ligands were done 30 min before capsaicin injection and withdrawal latencies to a mechanical stimulus were determined 15 min after capsaicin injection (FIG. 1).
Mechanical allodynia was quantified by measuring the hind paw withdrawal response latency to von Frey filament stimulation. Mice were placed into compartment enclosures in a test chamber with a framed metal mesh floor and allowed to acclimate to their environment for 120 min before testing. […] The mechanical stimulus was applied to the plantar surface of the right, capsaicin-injected hind paw from below the mesh floor by using an automated testing device (dynamic plantar aesthesiometer; Ugo Basile, Italy) that lifts a straight filament (0.5 mm diameter). The filament exerted a fixed upward pressure (1 g or 0.25 g) on the plantar surface. When the animal withdrew its hind paw, the mechanical stimulus automatically stopped and the latency time was recorded. Latency was defined as the time from the onset of exposure to the filament to the cessation of the pressure when the sensor detected the withdrawal of the paw. A cut-off latency of 60 sec was imposed. Paw withdrawal latencies were measured in triplicate for each animal.
This approach enabled us to evaluate the possible antiallodynic effect of 5-HT7 ligands.
Data are presented as mean paw withdrawal latency responses in sec±S.E.M. Capsaicin-injected hind paw withdrawal responses to mechanical stimulation of treated mice were compared with those of untreated (vehicle-treated) mice. Statistical analysis to test intergroup comparisons was made using an initial one-way analysis of variance followed by the Newman-Keuls multiple comparison test. The level of significance was set at p<0.05.

[3] = biological target: T1, h5-HT1A (Homo sapiens, UniProt P08908); test: Radioligand binding assay, h5-HT1A
T1 sequence (P08908 1-422): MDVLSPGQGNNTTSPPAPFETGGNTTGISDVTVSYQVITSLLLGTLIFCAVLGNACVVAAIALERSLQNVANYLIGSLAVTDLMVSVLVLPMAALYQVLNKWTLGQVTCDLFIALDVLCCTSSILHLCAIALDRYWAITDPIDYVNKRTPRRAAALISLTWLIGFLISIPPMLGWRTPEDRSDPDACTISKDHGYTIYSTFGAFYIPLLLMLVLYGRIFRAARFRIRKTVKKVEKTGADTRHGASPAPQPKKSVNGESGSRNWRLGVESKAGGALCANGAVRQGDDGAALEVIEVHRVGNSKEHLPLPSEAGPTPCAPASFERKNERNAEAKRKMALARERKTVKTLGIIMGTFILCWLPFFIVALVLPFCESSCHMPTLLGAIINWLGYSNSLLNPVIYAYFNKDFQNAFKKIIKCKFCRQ

[4] = biological target: h5-HT2B (Homo sapiens, UniProt P41595); test: Radioligand binding assay, h5-HT2B
Sequence of h5-HT2B (P41595 whole entry): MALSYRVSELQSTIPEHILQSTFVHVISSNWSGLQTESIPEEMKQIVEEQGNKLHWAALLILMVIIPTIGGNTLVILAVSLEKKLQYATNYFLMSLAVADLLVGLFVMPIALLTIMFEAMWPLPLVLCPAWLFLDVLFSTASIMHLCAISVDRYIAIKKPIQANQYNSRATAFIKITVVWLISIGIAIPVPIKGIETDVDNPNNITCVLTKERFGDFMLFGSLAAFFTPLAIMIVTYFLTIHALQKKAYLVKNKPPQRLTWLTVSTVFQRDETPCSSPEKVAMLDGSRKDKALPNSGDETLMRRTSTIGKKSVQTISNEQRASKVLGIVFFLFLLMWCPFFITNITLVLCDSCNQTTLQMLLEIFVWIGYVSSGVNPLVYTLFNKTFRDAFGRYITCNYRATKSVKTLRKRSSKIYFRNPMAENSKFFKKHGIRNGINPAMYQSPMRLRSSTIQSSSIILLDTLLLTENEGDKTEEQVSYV

[5] = biological target: h5-HT2C (Homo sapiens, UniProt P28335); test: Radioligand binding assay, h5-HT2C
Sequence of h5-HT2C (P28335 33-458): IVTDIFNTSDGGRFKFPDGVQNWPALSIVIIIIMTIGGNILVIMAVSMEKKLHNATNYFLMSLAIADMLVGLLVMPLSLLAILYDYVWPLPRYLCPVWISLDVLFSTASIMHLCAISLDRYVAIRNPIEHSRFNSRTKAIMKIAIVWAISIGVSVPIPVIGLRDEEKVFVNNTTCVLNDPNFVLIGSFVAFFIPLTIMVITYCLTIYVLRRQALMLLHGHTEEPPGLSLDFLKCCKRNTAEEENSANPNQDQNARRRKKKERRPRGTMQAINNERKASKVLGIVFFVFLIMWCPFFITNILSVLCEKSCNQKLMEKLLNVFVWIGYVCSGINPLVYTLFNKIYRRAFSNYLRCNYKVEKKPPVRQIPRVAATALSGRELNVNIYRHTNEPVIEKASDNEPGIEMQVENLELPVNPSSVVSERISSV

[6] = biological target: T2, h5-HT3 (Homo sapiens, UniProt P46098); test: Radioligand binding assay, h5-HT3; conditions: read-out: Affinity [ki (nM)]
T2 sequence (P46098 24-478): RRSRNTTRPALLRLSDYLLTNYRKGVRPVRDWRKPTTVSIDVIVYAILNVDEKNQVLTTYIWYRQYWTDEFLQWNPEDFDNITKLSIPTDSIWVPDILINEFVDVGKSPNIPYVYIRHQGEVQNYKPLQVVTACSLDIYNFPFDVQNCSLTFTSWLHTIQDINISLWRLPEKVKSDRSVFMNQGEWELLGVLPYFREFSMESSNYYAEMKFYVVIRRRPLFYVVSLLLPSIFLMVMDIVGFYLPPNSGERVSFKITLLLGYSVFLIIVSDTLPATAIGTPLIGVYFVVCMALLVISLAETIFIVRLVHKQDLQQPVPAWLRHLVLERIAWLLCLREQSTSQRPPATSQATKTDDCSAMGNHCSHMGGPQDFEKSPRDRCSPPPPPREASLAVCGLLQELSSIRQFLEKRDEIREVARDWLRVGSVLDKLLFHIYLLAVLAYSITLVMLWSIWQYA
Procedure: (§1) Binding affinities were determined in radioligand binding assays according to their standard assays protocols. In case 1, the assays included in the LeadProfilingScreen package plus 5-HT1 non-selective, 5-HT2 non-selective, 5-HT2B, 5-HT2C, 5-HT4, 5-HT5A, 5-HT6 and 5-HT7 were performed. In case 2, assays included in the High-throughput profile plus 5-HT1D, 5-HT2B, 5-HT4e were performed. For AS-19 further assays were carried out to complete its selectivity profile for serotonin receptors, including 5-HT1B, 5-HT1D, 5-HT2A and 5-HT4a.

[7] = biological target: gp5-HT4 (Cavia porcellus, UniProt O70528); test: Radioligand binding assay, gp5-HT4; design: species or system guinea pig; conditions: read-out: Affinity [ki (nM)]
Sequence of gp5-HT4 (O70528 whole entry): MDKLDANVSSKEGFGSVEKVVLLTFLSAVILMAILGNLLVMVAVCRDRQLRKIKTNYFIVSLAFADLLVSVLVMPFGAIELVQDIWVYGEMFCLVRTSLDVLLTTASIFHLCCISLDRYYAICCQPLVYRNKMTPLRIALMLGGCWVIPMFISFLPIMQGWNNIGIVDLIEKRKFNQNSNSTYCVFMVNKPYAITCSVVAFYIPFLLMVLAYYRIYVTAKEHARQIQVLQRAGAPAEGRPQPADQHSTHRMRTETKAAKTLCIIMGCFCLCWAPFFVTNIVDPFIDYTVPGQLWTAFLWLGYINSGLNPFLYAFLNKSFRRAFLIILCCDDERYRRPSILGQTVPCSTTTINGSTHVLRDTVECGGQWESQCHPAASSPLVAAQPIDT
Procedure: as §1

[8] = biological target: h5-HT5A (Homo sapiens, UniProt P47898); test: Radioligand binding assay, h5-HT5A; conditions: read-out: Affinity [ki (nM)]
Sequence of h5-HT5A (P47898 whole entry): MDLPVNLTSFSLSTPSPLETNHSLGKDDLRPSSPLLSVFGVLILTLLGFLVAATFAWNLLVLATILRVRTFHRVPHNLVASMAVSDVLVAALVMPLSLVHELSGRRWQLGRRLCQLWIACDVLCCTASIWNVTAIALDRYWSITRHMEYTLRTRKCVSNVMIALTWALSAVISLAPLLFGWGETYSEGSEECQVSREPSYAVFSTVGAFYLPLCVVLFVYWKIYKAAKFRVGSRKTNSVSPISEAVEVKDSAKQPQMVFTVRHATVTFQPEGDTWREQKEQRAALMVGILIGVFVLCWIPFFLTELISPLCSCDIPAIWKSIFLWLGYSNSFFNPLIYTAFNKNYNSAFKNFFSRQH

[9] = biological target: h5-HT6 (Homo sapiens, UniProt P50406); test: Radioligand binding assay, h5-HT6
Sequence of h5-HT6 (P50406 whole entry): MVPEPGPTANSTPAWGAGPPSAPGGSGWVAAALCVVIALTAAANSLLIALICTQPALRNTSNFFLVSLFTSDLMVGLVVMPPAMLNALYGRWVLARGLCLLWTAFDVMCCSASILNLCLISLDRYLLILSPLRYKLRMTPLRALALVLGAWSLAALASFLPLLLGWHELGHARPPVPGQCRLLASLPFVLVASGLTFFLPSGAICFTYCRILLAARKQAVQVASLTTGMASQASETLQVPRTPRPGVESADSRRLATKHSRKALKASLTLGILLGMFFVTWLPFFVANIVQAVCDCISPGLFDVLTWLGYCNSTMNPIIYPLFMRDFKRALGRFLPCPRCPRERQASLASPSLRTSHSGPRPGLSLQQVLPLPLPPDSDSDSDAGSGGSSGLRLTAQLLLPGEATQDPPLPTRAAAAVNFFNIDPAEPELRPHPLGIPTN

[10] = biological target: h5-HT7 (Homo sapiens, UniProt P34969); test: biochemical; conditions: Affinity [ki (nM)]
Sequence of h5-HT7 (P34969 whole entry): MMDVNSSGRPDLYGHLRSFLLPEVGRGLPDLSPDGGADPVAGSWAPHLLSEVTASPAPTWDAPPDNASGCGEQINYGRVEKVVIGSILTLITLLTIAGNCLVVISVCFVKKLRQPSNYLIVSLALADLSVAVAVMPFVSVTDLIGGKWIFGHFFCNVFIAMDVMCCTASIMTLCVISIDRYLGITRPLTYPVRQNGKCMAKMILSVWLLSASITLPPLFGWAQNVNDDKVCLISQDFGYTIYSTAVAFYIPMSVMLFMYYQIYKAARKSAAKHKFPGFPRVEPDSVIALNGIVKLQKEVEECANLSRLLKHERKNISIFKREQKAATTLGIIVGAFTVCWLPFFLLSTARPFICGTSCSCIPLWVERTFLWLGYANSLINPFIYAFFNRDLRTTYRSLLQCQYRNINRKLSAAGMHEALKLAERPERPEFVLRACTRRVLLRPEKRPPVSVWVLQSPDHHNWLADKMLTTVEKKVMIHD

[11] = biological target: T3, 5-HT7 receptors (Homo sapiens, UniProt P34969); test: cAMP measurement (HTRF) in HEK-293F cells stably expressing human 5-HT7 receptors; format: cell-based; design: expressed in transfected cells; host or cells: HEK-293F; conditions: for EC50: HEK-293F cells, human 5-HT7, mean ± SEM
T3 sequence (P34969 whole entry): as above
Procedure: The HTRF CAMP kit from CisBio was used according to the manufacturer's directions. The experimental procedure was performed as stated below. After overnight serum-free incubation, suspended cells (20,000 cells per well) were added to 96-well culture plates in incubation buffer composed of Ham's F12 (Gibco) plus 1 mM 3-isobutyl-1-methyl-xanthine (IBMX; Sigma) and 20 μM pargyline (Sigma).
For agonist and antagonist experiments, 2 μl of either compound or vehicle was added to each well on 40 μl of cell suspension at different concentrations, preincubating plates for 10 min at room temperature after compound addition.

[12] = biological target: h5-HT2A (Homo sapiens, UniProt P28223); test: Radioligand binding assay, h5-HT2A; conditions: read-out: Affinity [ki (nM)]
Sequence of h5-HT2A (P28223 whole entry): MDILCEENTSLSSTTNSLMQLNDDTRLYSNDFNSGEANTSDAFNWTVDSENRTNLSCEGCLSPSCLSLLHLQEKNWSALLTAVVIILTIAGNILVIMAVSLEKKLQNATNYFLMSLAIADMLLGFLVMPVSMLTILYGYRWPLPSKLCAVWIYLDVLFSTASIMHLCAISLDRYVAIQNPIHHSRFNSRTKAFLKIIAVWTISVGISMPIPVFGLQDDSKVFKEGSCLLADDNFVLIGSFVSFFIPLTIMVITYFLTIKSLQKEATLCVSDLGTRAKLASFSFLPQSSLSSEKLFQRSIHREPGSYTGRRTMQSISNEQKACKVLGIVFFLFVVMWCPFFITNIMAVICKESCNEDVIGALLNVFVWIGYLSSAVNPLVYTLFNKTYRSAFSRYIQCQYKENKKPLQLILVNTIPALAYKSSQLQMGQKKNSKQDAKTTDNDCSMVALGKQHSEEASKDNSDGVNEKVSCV

[13] = test system: mechanical allodynia induced by partial sciatic nerve ligation; test: Partial sciatic nerve ligation, von Frey test (mechanical allodynia); format: in vivo, mice; conditions: for effect on mechanical allodynia (von Frey pressure threshold), nerve-injured mice: days 11-13 post-injury
Text: Mechanical allodynia was quantified by measuring the tactile threshold for hind paw withdrawal following von Frey filament stimulation. […] The filament exerted an increasing upward pressure on the plantar surface. The pressure increased linearly with time (0.1 g/s; from 0 to 5 g in 50 s) until the mouse withdrew its paw. […] A cut-off threshold of 5 g (50 s) was imposed.
The filament of 0.4 g was first used. […] This up-down procedure was stopped four measures after the first change in animal responding and the threshold of response was calculated. Clear paw withdrawal, shaking was considered as a nociceptive-like response.

[14] = test system: thermal hyperalgesia induced by partial sciatic nerve ligation; test: Partial sciatic nerve ligation, plantar test (thermal hyperalgesia)
Procedure: Animals were housed in groups of five, provided with food and water ad libitum and kept in controlled laboratory conditions with the temperature maintained at 21±1° C. and light in 12 h cycles (on at 07:00 h and off at 19:00 h). Experiments were carried out in a soundproof and air-regulated experimental room.
The rest of compounds were prepared as aqueous solutions. Doses were calculated based on the molecular weight of the free base. All the compounds and vehicles (1% DMSO or physiological saline) were administered in a volume of 5 ml/kg through the subcutaneous (s.c.) route. When two compounds were co-administered, they were injected s.c. in opposite flanks of the mice.
This model consists of partial injury to the sciatic nerve at mid-thigh level. All surgical procedures for nerve injury were performed under isoflurane (IsoFlo®, Abbott-Laboratorios Dr. Esteve, S. A., Barcelona, Spain) anesthesia (induction: 3%; surgery: 2%). Briefly, mice were anaesthetized and the common sciatic nerve was exposed at the level of the mid-thigh of the right hind paw. Partial nerve injury was produced at about 1 cm proximal to the nerve trifurcation by tying a tight ligature around approximately 33 to 50% the diameter of the sciatic nerve using 9-0 non-absorbable virgin silk suture (Alcon surgical, Texas, USA). Ligature enclosed the outer ⅓-½ sciatic nerve whereas the rest of the nerve (inner ⅔-½) was leaved “uninjured”. The muscle was then stitched with 6-0 silk suture and the skin incision was closed with wound clips. Control, sham-operated mice underwent the same surgical procedure and the sciatic nerve was exposed, but not ligated. After surgery, animals were allowed to recover for 5 days prior to initiation of nociceptive behavioral tests (see experimental protocol below).
The effectiveness of acute treatments with 5-HT7 ligands compared to vehicle on the expression of neuropathic pain was investigated based on the following experimental protocol. […] After the habituation period, pre-injury baseline responses in each test were established during 2 consecutive days. One day after baseline measurements, nerve injury or sham operation was induced as previously described. Mice were then tested in either the von Frey or the plantar test on day 5 after the surgical procedure to monitor post-injury responses. Post-injury baseline responses of mice treated with vehicle were obtained on day 10 (basal pre-treatment). On days 11-13 mice received treatment with three different doses of 5-HT7 ligands following a Latin square design. Finally, on day 14 after surgery, baseline responses in vehicle-treated mice (basal post-treatment) were evaluated as an internal control to ensure that mechanical allodynia and thermal hyperalgesia were not influenced by previous treatments in the Latin square design.

[15] = test system: sciatic nerve-ligatured rats; test: Chronic constriction injury of the sciatic nerve (CCI-SN), Randall-Sellito test
Procedure: (§2) All compounds were prepared as aqueous solutions. […] When two compounds were co-administered, one was injected s.c. and the other i.p.
Briefly, the right common sciatic nerve was exposed at mid-tight level by blunt dissection through the biceps femoris muscle. Proximal to the trifurcation, ≈10 mm of nerve was freed from adhering tissue and four loose ligatures (5.0 chromic catgut) were tied around the sciatic nerve (≈1 mm apart). […] In sham-operated control rats, an identical dissection was performed on the right side allowing the sciatic nerve to be freed from surrounding tissue, but not ligatured. Finally, muscle and skin were closed in layers with silk thread.
Mechanical nociceptive thresholds, expressed as grams (g), were measured using the Randall-Sellito test (Ugo Basile analgesimeter; Bioseb, Chaville, France). An increasing pressure was applied to the nerve-injured hindpaw of unrestrained rats until paw withdrawal (PW) and then a squeak (i.e. the vocalization threshold when the paw was held under pressure) were obtained. As PW is a spinally coordinated reflex whereas vocalization is a supra-spinal integrated response (Kayser and Christensen, 2000), this test allowed assessment of the respective contribution of spinal versus supra-spinal mechanisms.

[16] = test system: infraorbital nerve-ligatured rats; test: Chronic constriction injury of the infraorbital nerve (CCI-ION), von Frey filaments
Procedure: Food and water were available ad libitum. Rats were allowed to habituate to the housing facilities for at least 1 week before surgery.
as §2
After pentobarbital-induced anaesthesia, the head of the rat was fixed in a stereotaxic frame, and a mid-line scalp incision was made, exposing skull and nasal bone. The infraorbital part of the right infraorbital nerve was then exposed. The edge of the orbit, formed by the maxillary, frontal, lacrimal and zygomatic bones, was dissected free, and orbital contents were gently deflected to give access to the infraorbital nerve. The latter was then dissected free at its most rostral extent in the orbital cavity, just caudal to the infraorbital foreamen. […] Care was taken to avoid any interruption of the epineurial circulation. In sham-operated rats, the right infraorbital nerve was exposed, but it was not ligatured.
In these rats with unilateral ligatures on the infraorbital nerve, sensitivity to mechanical stimulation in the ipsilateral vibrissal territory was assessed by determination of pressure threshold, delivered through von Frey filaments (Semmes-Weinstein monofilaments, Stoelting, Wood Dale, Ill., USA), necessary to trigger defensive behavioural response (brisk withdrawal of the head; attack; escape reaction).

[17] = biological target: T4, h5-HT1F (Homo sapiens, UniProt P30939); test: Radioligand binding assay, h5-HT1F; conditions: read-out: Affinity [ki (nM)]
T4 sequence (P30939 1-366): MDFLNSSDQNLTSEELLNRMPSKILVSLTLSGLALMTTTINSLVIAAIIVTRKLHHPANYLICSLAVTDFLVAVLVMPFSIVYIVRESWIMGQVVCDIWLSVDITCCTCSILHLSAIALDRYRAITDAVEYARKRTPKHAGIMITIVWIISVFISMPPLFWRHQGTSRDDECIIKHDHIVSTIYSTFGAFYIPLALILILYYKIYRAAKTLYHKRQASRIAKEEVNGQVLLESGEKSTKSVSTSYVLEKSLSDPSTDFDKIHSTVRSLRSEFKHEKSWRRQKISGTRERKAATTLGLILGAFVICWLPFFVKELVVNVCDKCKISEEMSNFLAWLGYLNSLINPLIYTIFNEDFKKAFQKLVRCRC

[18] = test system: capsaicin-induced mechanical allodynia; test: Capsaicin test, proallodynic protocol (4 ng capsaicin, 0.25 g von Frey filament); format: in vivo, mice; conditions: 10 mg/Kg s.c., 0.25 g pressure
Procedure: Alternatively, in some experiments, only 4 ng (instead of 1 μg) of capsaicin were injected into the paw and the pressure exerted by the filament was reduced to 0.25 g (instead of 1 g). […] This approach was used to test the possibility that treatments could exert a proallodynic effect. The FIG. 1 summarizes the two different experimental approaches carried out in this study.

[19] = biological target: T3, 5-HT7 receptors; conditions: Mahe et al., 2004; Romero et al., 2006; cited from earlier work

COc1ccccc1N1CCN(CCN(C(=O)C2CCCCC2)c2ccccn2)CC1 [WAY-100635, N-(2-(4-(2-methoxyphenyl)-1-piperazinyl)ethyl)-N-(2-pyridinyl)cyclohexane carboxamide]
ID50 for block of 5-HT1A-mediated effects induced by 8-OH-DPAT [1]: 0.01 mg/kg
effect on capsaicin-induced mechanical allodynia ([2]; 0.1 and 0.3 mg/kg s.c., 1 g filament): unaffected
effect on capsaicin-induced mechanical allodynia ([2]; 0.5 and 1 mg/kg s.c., 1 g filament): significant increase in paw withdrawal latency
effect on the antiallodynic effect of AS-19 when co-administered ([2]; AS-19 at 5 and 10 mg/kg, WAY-100635 0.3 mg/kg or SB-258719 5 mg/kg s.c.): unaffected
effect on the antiallodynic effect of F-13640 when co-administered ([2]; WAY-100635 0.3 mg/kg + F-13640 1 mg/kg s.c.): blocked this antiallodynic effect

Cc1nn(C)c(C)c1-c1cccc2c1CC[C@H](N(C)C)C2 [AS-19]
Ki [3]: 89.7 nM
Ki [4]: > 1000 nM
Ki [5]: > 1000 nM
Ki [6]: > 1000 nM
Ki [7]: > 1000 nM
Ki [8]: 98.5 nM
Ki [9]: > 1000 nM
Ki [10]: 0.605 nM and 0.6 nM
EC50 ([11]; EC50 (nM), cAMP concentration-response curves): 8.87 ± 0.57 nM
Emax ([11]; HEK293F): 77 ± 2.3%
EC50 ([11]; pEC50, cAMP concentration-response curves): 8.71 nM
dose at which the antiallodynic effect reached the maximum ([2]; 1 g filament): 10 mg/kg

CN(C)CCSc1cccc(-c2ccccc2)n1 [MSD-5a, 2-(6-phenylpyridin-2-ylthio)-N,N-dimethylethanamine]
Ki ([3]; h5-HT1A, read-out: Affinity [ki (nM)]): 16 nM
Ki [12]: 320 nM
effect on mechanical allodynia (von Frey pressure threshold), nerve-injured mice ([13]; 0.3 mg/kg s.c.): ineffective
effect on mechanical allodynia (von Frey pressure threshold), nerve-injured mice ([13]; 1 and 3 mg/kg s.c.): significantly inhibited mechanical allodynia; also recorded: restored thresholds of the nociceptive withdrawal response of nerve-injured paws to baseline pre-injury values
persistence of the antiallodynic effect after treatment ([13]; post-treatment thresholds, day 14 post-injury): disappeared the following day after last administration of MSD-5a
effect on nociceptive threshold in sham-operated mice ([13]; sham-operated, s.c., over the doses tested): did not produce any effects
effect on thermal hyperalgesia (paw withdrawal latency), nerve-injured mice ([14]; 0.3 mg/kg s.c.): did not exert analgesic (antihyperalgesic) effect
effect on thermal hyperalgesia (paw withdrawal latency), nerve-injured mice ([14]; 1 and 3 mg/kg s.c., days 11-13 post-injury): increased the withdrawal latency of nerve-injured paws to levels indistinguishable from control baseline pre-injury values
effect on thermal withdrawal latency in sham-operated mice ([14]; sham-operated, s.c.): had no effects
effect on capsaicin-induced mechanical allodynia (paw withdrawal latency vs vehicle) ([2]; 3, 10 and 30 mg/kg s.c., 1 g filament): increased the latencies of nociceptive paw withdrawal responses
effect on capsaicin-induced mechanical allodynia (paw withdrawal latency) ([2]; mice, 1 g filament, s.c. 30 min before capsaicin, over the doses tested): restored the nociceptive response of capsaicin-sensitized mice to baseline values
dose at which the antiallodynic effect reached the maximum ([2]; 1 g filament): 10 mg/kg
effect on mechanical nociceptive thresholds in sciatic nerve-ligatured rats ([15]; s.c., paw withdrawal and vocalization thresholds): clear-cut antihyperalgesic effects
effect on response threshold (mechanical allodynia) in infraorbital nerve-ligatured rats ([16]; s.c., von Frey filaments, ipsilateral vibrissal territory): clearly increased the threshold

Cc1ccc(CNCC2(F)CCN(C(=O)c3ccc(F)c(Cl)c3)CC2)nc1 [F-13640, (3-Chloro-4-fluoro-phenyl)-[4-fluoro-4-{[(5-methyl-pyridin-2-ylmethyl)-amino]-methyl}piperidin-1-yl]methanone]
effect on capsaicin-induced mechanical allodynia ([2]; 1 mg/kg s.c., 1 g filament): inhibited

CC1CCN(CC[C@H]2CCCN2S(=O)(=O)c2cccc(O)c2)CC1 [SB-269970, (R)-3-(2-(2-(4-Methylpiperidin-1-yl)ethyl)pyrrolidine-1-sulfonyl)phenol]
Ki [17]: > 1000 nM
proallodynic effect (paw withdrawal latency) [18]: allodynia was evidenced
functionality at 5-HT7 receptor as described [19]: inverse agonist
effect on capsaicin-induced mechanical allodynia ([2]; 10 mg/kg s.c., alone, 1 g filament): did not modify paw withdrawal latencies
effect on the antiallodynic effect of AS-19 when co-administered ([2]; SB-269970 10 mg/kg + AS-19 5 mg/kg s.c.): blocked the antiallodynic effect of the agonist
effect on AS 19-induced anti-hyperalgesia/anti-allodynia ([15]; antagonist i.p., AS-19 s.c., sciatic nerve-ligated rats): Blockade
effect on 5a-MSD-induced anti-hyperalgesia/anti-allodynia ([16]; antagonist i.p., 5a-MSD s.c., infraorbital nerve-ligated rats): Blockade
effect on AS 19-induced anti-hyperalgesia/anti-allodynia ([16]; antagonist i.p., AS-19 s.c., infraorbital nerve-ligated rats): Blockade
